Reference: article PMC8162746 (Cancer chemotherapy and pharmacology, 2021)
Several values for one entry are separate records, joined by “and”; a condition that tells them apart may be missing. Equal entries are not always repeated. Entries after “also recorded” stand apart in the source; their conditions may differ. Where two headings read alike, the source gives them in different places.

What was measured:
[1] = test system: Burkitt lymphoma mouse models; conditions: cited from earlier work
[2] = test system: xenograft and allograft schwannoma; conditions: cited from earlier work
[3] = test system: patients with multiple myeloma and T- and B-cell lymphomas; conditions: cited from earlier work
[4] = Plasma pharmacokinetics, LC-MS/MS, non-compartmental analysis; format: in vivo, human; conditions: for AUC / Cmax: oral; for AUC: Median AUC; for Cmax: Median Cmax
[5] = cited from earlier work
[6] = test system: primary CNS and advanced solid tumors; assay: Phase I trial: response evaluation; format: in vivo, human
[7] = test system: schwannoma and meningioma cell lines; conditions: cited from earlier work
[8] = test system: patients with primary CNS and advanced solid tumors; assay: Phase I dose-escalation trial of oral AR-42: safety and tolerability; format: in vivo
[9] = human, plasma, patients without grade 3 or 4 toxicity
[10] = 17 patients evaluable for toxicity

Structure (SMILES): CC(C)[C@H](C(=O)Nc1ccc(C(=O)NO)cc1)c1ccccc1 [AR-42]
- Activity compared with vorinostat [1]: superior to that of vorinostat
- Schwannoma growth [2]: suppressed peripherally implanted xenograft and allograft schwannoma growth
- Mean QTc change ([3]; patients with grade 1 QTc prolongation): 27.4 ms
- Grade 1 QTc prolongation ([3]; phase I study in hematologic malignancies): 8 of 27
- Thrombocytopenia ([3]; phase I trial in hematologic malignancies): 16 of 27
- Maximum tolerated dose (MTD) ([3]; three times weekly for three weeks of a 28-day cycle): 40 mg
- Accumulation ([4]; 3 times weekly for three weeks of a four-week cycle): did not accumulate
- Cmax, AUC0–24 and AUC0–∞ between Day 1 and Day 19 ([4]; cycle 1): remained consistent
- AUC ([4]; human, plasma, patients with a grade 3 or 4 toxicity during cycle 1 and 2, p=0.036): 16.4 µM·h
- AUC [4, 9]: 11.3 µM·h
- Cmax ([4]; human, plasma, patients with a grade 3 or 4 toxicity during cycle 1 and 2, p=0.0016): 1540 nM
- Cmax [4, 9]: 1040 nM
- half-life ([4]; human, plasma, po): 8 to 13 h
- AUC0–24 and AUC0–∞ higher in 80 mg dose group compared to 60 mg dose group ([4]; only two patients at 80 mg): roughly 50%
- Median CL/F ([4]; patients with a grade 3 or 4 toxicity during cycle 1 and 2, p=0.0745): 10.48 L/h
- Median CL/F ([4]; patients without grade 3 or 4 toxicity): 15.8 L/h
- Blood brain barrier penetration ([5]; mouse model): crossed the blood brain barrier
- Blood brain barrier penetration ([5]; rodents): penetrates the blood brain barrier
- Stable disease ([6]; 30 mg): 1 of 3
- Stable disease ([6]; 60 mg): 7 of 11
- Follow up without progression ([6]; 1 of 5 patients with NF2 or meningioma): > 27 months
- Best response stable disease, proportion of patients ([6]; 15 evaluable patients, 95% CI 26.6–78.7): 53%
- Stable disease ([6]; all evaluable patients): 8 of 15
- Median PFS ([6]; evaluable NF2 or meningioma (n=5), 60 mg, 95% CI 1.9-not reached): 9.1 months
- Median PFS ([6]; non-CNS solid tumors (n=10), 95% CI 0.1–5.0): 1.7 months
- Median PFS ([6]; overall cohort, 95% CI 1.2–9.1): 3.6 months
- Proliferation of schwannoma and meningioma cell lines ([7]; cell cycle arrest at G2 and apoptosis): suppressed proliferation
- AKT phosphorylation [7]: decreased AKT phosphorylation
- Treatment-related deaths ([8]; 17 patients): no treatment-related deaths
- Grade 3 TRAE anemia [8, 10]: 2 n
- Grade 3 TRAE anorexia [8, 10]: 1 n
- Grade 3 TRAE hematuria [8, 10]: 1 n
- Grade 3 TRAE hypophosphatemia [8, 10]: 3 n
- Grade 3 TRAE lymphopenia [8, 10]: 3 n
- Grade 3 TRAE nausea [8, 10]: 2 n
- Grade 3 TRAE thrombocytopenia [8, 10]: 5 n
- Grade 3 TRAE venous thromboembolism [8, 10]: 1 n
- Grade 3 TRAE weight loss [8, 10]: 1 n
- Cardiac toxicity observed (QTc prolongation) ([8]; 17 patients, event at 30 mg): one patient with a grade 1 QTc prolongation; also recorded: one patient who experienced a grade 1 QTc prolongation
- Anemia, treatment-related adverse event, All grades ([8]; N=17, 30-80 mg): 10 n (%) and 10 (58.8%) n (%)
- Anemia, treatment-related adverse event, Grade 1–2 ([8]; N=17, 30-80 mg): 8 (47.1%) n (%)
- Anemia, treatment-related adverse event, Grade 3–4 ([8]; N=17, 30-80 mg): 2 (11.8%) n (%)
- Anorexia, treatment-related adverse event, All grades ([8]; N=17, 30-80 mg): 5 (29.4%) n (%)
- Anorexia, treatment-related adverse event, Grade 1–2 ([8]; N=17, 30-80 mg): 4 (23.5%) n (%)
- Anorexia, treatment-related adverse event, Grade 3–4 ([8]; N=17, 30-80 mg): 1 (5.9%) n (%)
- Constipation, treatment-related adverse event, All grades ([8]; N=17, 30-80 mg): 4 (23.5%) n (%)
- Constipation, treatment-related adverse event, Grade 1–2 ([8]; N=17, 30-80 mg): 4 (23.5%) n (%)
- Cough, treatment-related adverse event, All grades ([8]; N=17, 30-80 mg): 2 (11.8%) n (%)
- Cough, treatment-related adverse event, Grade 1–2 ([8]; N=17, 30-80 mg): 2 (11.8%) n (%)
- Dehydration, treatment-related adverse event, All grades ([8]; N=17, 30-80 mg): 2 (11.8%) n (%)
- Dehydration, treatment-related adverse event, Grade 1–2 ([8]; N=17, 30-80 mg): 2 (11.8%) n (%)
- Diarrhea, treatment-related adverse event, All grades ([8]; N=17, 30-80 mg): 6 n (%) and 6 (35.3%) n (%)
- Diarrhea, treatment-related adverse event, Grade 1–2 ([8]; N=17, 30-80 mg): 6 (35.3%) n (%)
- Dizziness, treatment-related adverse event, All grades ([8]; N=17, 30-80 mg): 4 (23.5%) n (%)
- Dizziness, treatment-related adverse event, Grade 1–2 ([8]; N=17, 30-80 mg): 4 (23.5%) n (%)
- Dry mouth, treatment-related adverse event, All grades ([8]; N=17, 30-80 mg): 3 (17.6%) n (%)
- Dry mouth, treatment-related adverse event, Grade 1–2 ([8]; N=17, 30-80 mg): 3 (17.6%) n (%)
- Dysgeusia, treatment-related adverse event, All grades ([8]; N=17, 30-80 mg): 3 (17.6%) n (%)
- Dysgeusia, treatment-related adverse event, Grade 1–2 ([8]; N=17, 30-80 mg): 3 (17.6%) n (%)
- Elevated alkaline phosphatase, treatment-related adverse event, All grades ([8]; N=17, 30-80 mg): 4 (23.5%) n (%)
- Elevated alkaline phosphatase, treatment-related adverse event, Grade 1–2 ([8]; N=17, 30-80 mg): 4 (23.5%) n (%)
- Elevated creatinine, treatment-related adverse event, All grades ([8]; N=17, 30-80 mg): 8 n (%) and 8 (47.1%) n (%)
- Elevated creatinine, treatment-related adverse event, Grade 1–2 ([8]; N=17, 30-80 mg): 8 (47.1%) n (%)
- Fatigue, treatment-related adverse event, All grades ([8]; N=17, 30-80 mg): 11 (64.7%) n (%)
- Fatigue, treatment-related adverse event, Grade 1–2 ([8]; N=17, 30-80 mg): 11 (64.7%) n (%)
- Headache, treatment-related adverse event, All grades ([8]; N=17, 30-80 mg): 3 (17.6%) n (%)
